System: Mus musculus
Test: Toxicity in ip dosed mouse
Type: organism-based
Conditions: in vivo

C=C1CCCC2=NCC(C)C(C)CC23CCC(C2C=C(C)C(=O)O2)=C(C)C3/C=C(\C)C(O)CC2CCC3(CCC4(OC(CCC4O)C1)O3)O2 (stereo unspecified)
MLD: 30 µg/kg
